Assays:
β-glucosidases = conditions: Legler & Pohl, 1986; cited from earlier work
[1] = test system: oligosaccharide biosynthesis in HL-60 cells; experiment: Glycopeptide analysis by Con A-SEPHAROSE chromatography, HL-60 cells; assay type: cell-based, human
WEHI-3B cell lysosomes = experiment: Transmission electron microscopy of lysosomes of CBE treated WEHI-3B cells; assay type: cell-based, murine; conditions: transmission electron microscopy (FIG. 6)
[2] = molecular target: UDP-glucose:N-acylsphingosine glucosyltransferase; experiment: Inhibition of UDP-glucose:N-acylsphingosine glucosyltransferase; assay type: biochemical, rat brain, mouse macrophage (WEHI-3B); conditions: rat brain or mouse macrophage homogenates; read-out: IC50
[3] = test system: cholera toxin binding sites on H9 cells; assay type: cell-based, human; conditions: h9 cells, 4320 min
α-glucosidase I and II = experiment: Inhibition of purified processing α-glucosidase I and II; assay type: biochemical; conditions: mixture of purified α-glucosidases I and II
Method: Porcine liver α-glucosidase I and rat liver α-glucosidase II were purified to homogeneity and assayed by conventional procedure using a [^14 C]-glucose labelled Glc3 Man9 GlcNAc2 substrate as previously described by Karlsson et al., J. Biol. Chem. 268, 570-576 (1993).
Enzymes were assayed according to procedure described hereinbefore using
The data from FIG. 8 were […]

HL-60 cells = experiment: Cytotoxicity in the dose range tested; assay type: cell-based, human
[4] = test system: glucocerebrosidase in WEHI-3B cells; conditions: WEHI-3B cells in the absence of CBE; cited from earlier work
[5] = test system: glycolipid and phospholipid species in HL-60 cells; experiment: 2D-TLC analysis of total HL-60 lipids labelled with [14C]-palmitic acid; assay type: cell-based, human; conditions: 2D-TLC (FIG. 2)
Method: 2D-TLC separation was made of total HL-60 lipids labelled with [^14 C]-palmitic acid. Cells were treated with either 0.5 mM NB-DNJ or NB-DGJ or untreated (UT). Lipids were assigned as follows (untreated cells, lefthand panel, FIG. 2A): 1, gangliosides; 2, lysophospatidylcholine; 3, ceramide phosphorylcholine; 4, ceramide phosphorylethanolamine; 5, phospatidylcholine; 6, phosphatidylinositol; 7, phosphatidylethanolamine; 8, phosphatidylglycerol; 9, diglycosylceramide; 10, monoglycosylceramide; 11, cholesterol/fatty acids/neutral lipids; N and N* are unknowns; and 0 is the sample origin. Following NB-DNJ and NB-DGJ treatment (middle and righthand panels, FIGS. 2B and 2C, respectively) species 1 (gangliosides);9 (diglycosylceramide); 10 (monoglycosylceramide) and N* (unknown) were absent. The radiolabelled lipids were visualized by autoradiography.
HL-60 cells were cultured by conventional procedure as previously described by Platt et al., Eur. J. Biochem. 208, 187-193 (1992). HL-60 cells at 5×10^4 cells/ml were cultured in the presence or absence of imino sugars for 24 hr. For labelling, the two dimensional thin layer chromatography (2D-TLC) conventional method of Butters and Hughes was followed [In Vitro 17, 831-838 (1981)]. Briefly, [^14 C]-palmitic acid (56.8 mCi/mmol, ICN/Flow) was added as a sonicated preparation in foetal calf serum (FCS, Techgen, London, U.K., 0.5 μCi/ml) and the cells cultured for a further 3 days maintaining the imino sugars in the medium. The cells were harvested, washed three times with phosphate buffered saline (PBS), extracted in 1 ml chloroform:methanol (2:1 v/v) and separated by 1 dimensional TLC, loading equal counts (1D-TLC, chloroform:methanol:water (65:25:4)). For two dimensional separations the one dimensional separation was performed as described above, the plate dried overnight under vacuum and separated in the second dimension using a solvent of tetrahydrofuran: dimethoxymethane:methanol:water (10:6:4:1). Plates were air dried and exposed to Hyperfilm-MP high performance autoradiography film (Amersham).

[6] = test system: N-linked oligosaccharide processing of gp120 in CHO cells (α-glucosidases I and II); experiment: Endo H sensitivity of gp120 expressed in CHO cells (N-linked oligosaccharide processing); assay type: cell-based, Chinese hamster; conditions: 0.5 mM or 5 mM (FIG. 7)
Method: The arrows indicate the molecular weight of the untreated gp120 (120 kDa) and post endo H digestion (60 kDa). An additional band of low molecular weight (approximately 60 kDa) was present in some lanes and is a non-specific protein precipitated by the solid phase matrix.
The culture of CHO cells expressing soluble recombinant gp120 (from Dr. P. Stevens, MRC AIDS Directed Programme Reagent Project) and the radiolabelling of these cells was carried out by conventional procedure as described by Karlsson et al., J. Biol. Chem. 268, 570-576 (1993). Briefly, CHO cells were harvested mechanically, washed three times with phosphate buffered saline, 0.1M pH 7.2 (PBS) and resuspended in methionine- and cysteine-free RPMI-1640 medium (ICN-Flow Laboratories, High Wycombe, Bucks, U.K.) supplemented with 1% dialysed FCS. Cells (10^7 /ml) were preincubated in the presence or absence of NB-DNJ or NB-DGJ for 1 hr prior to the addition of 100 μCi/ml Tran^35 S-label (ICN-Flow) for 4 hr. The supernatants were collected and concentrated tenfold using a 30 kDa cut-off membrane (Amicon, Danvers, Mass., U.S.A.).
Immunoprecipitations were performed by conventional procedure as described by Karlsson supra. Supernatants were incubated with the mAb ABT 1001 monoclonal antibody (American Biotechnologies Inc., Cambridge, Mass., U.S.A.) at 0.5 μg/100 μl of supernatant for 30 min. at room temperature followed by sheep anti-mouse IgG1-coated magnetic beads (Dynal Ltd., Wirral, Merseyside, U.K., 1.2×10^7 beads per sample) for 1 hr. at 4° C. The beads were washed three times with 2% TRITON® X-100 in PBS and three times with PBS. Gp120 was eluted in […] reducing SDS-PAGE sample buffer with heating (95° C., 5 min.). Each sample was divided into two equal aliquots and 25 μl of dH2 O added to give a final volume of 50 μl. To one half of each sample 2 μl of endoglycosidase H (endo H, 1 unit/ml, Boehringer Mannheim Ltd., Lewes, Sussex, U.K.) was added and the other half left untreated. […]

[7] = test system: N-linked oligosaccharide processing of gp120 in CHO cells (α-glucosidases I and II); conditions: previously tested [Karlsson et al.]; cited from earlier work
[8] = test system: oligosaccharide biosynthesis in BW5147 cells; experiment: Glycopeptide analysis by Con A-SEPHAROSE chromatography, BW5147 cells; assay type: cell-based, murine
α-glucosidase I = conditions: cell culture systems, Karlsson et al.; cited from earlier work
[9] = test system: glycolipid biosynthesis in HL-60 cells; experiment: Inhibition of glycolipid biosynthesis in HL-60 cells, [14C]-palmitic acid labelling, 1D-TLC; assay type: cell-based, human;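 also: cells cultured 24 h with or without test compound, total cellular lipids resolved by one-dimensional TLC and detected by autoradiography, inhibition shown as missing Glc-Cer and gangliosides versus untreated cells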

CCCCCCCN1C[C@H](O)[C@@H](O)[C@@H](O)[C@H]1CO [N-heptyldeoxygalactonojirimycin]
affinity towards certain β-glucosidases (β-glucosidases): modest increase in the affinity

CCCCN1C[C@H](O)[C@@H](O)[C@H](O)[C@H]1CO [NB-DNJ, N-Butyldeoxynojirimycin]
Total 3H-mannose recovered ([1]; HL-60): 913095 cpm
Bi-antennary ([1]; HL-60, percentage of radiolabelled glycopeptides eluted with 10 mM methylglucoside): 20.0%
Oligo-mannose & hybrid ([1]; HL-60, percentage of radiolabelled glycopeptides eluted with 500 mM methylmannoside): 60.5%
Tetra- & Tri-antennary ([1]; HL-60, percentage of radiolabelled glycopeptides non-bound): 19.5%
glycopeptide profile by Con A-SEPHAROSE chromatography ([1]; HL-60 and BW5147): changes the affinity of glycopeptides
proportion of unbound glycans (tetra- and tri-antennary species) ([1]; HL-60 and BW5147): decreases
proportion of high mannose/hybrid glycans tightly bound to Con A-SEPHAROSE ([1]; HL-60 and BW5147, eluted with 500 mM methylmannoside): increase
glycolipid accumulation in lysosomes (WEHI-3B cell lysosomes): prevented the glycolipid accumulation
IC50 [2]: 2950 nM
reduction in cholera toxin binding [3]: approximately 90%
IC50 (α-glucosidase I and II): 360 nM
cytotoxicity (HL-60 cells): non-cytotoxic
Glc-Cer accumulation [4]: accumulated Glc-Cer
gangliosides, unknown lipid (N*), mono and dihexaside species following treatment ([5]; HL-60, 0.5 mM): absent
depletion of glycolipid species ([5]; HL-60, 500 μM): total depletion of glycolipid species
endo H sensitivity of gp120 N-linked glycans [6]: fully endo H sensitive
endo H sensitivity of high mannose oligosaccharides on gp120 [7]: fully sensitive to endo H
Total 3H-mannose recovered [8]: 686026 cpm
Bi-antennary ([8]; percentage of radiolabelled glycopeptides eluted with 10 mM methylglucoside): 4.9%
Oligo-mannose & hybrid ([8]; percentage of radiolabelled glycopeptides eluted with 500 mM methylmannoside): 68.3%
Tetra- & Tri-antennary ([8]; percentage of radiolabelled glycopeptides non-bound): 26.8%
concentration for α-glucosidase I inhibition (α-glucosidase I): 0.5 mM
lipid species whose biosynthesis was inhibited ([9]; HL-60, 500 μM, 1D-TLC): inhibited the biosynthesis of Glc-Cer, gangliosides and an unknown lipid species
inhibition of glycolipid biosynthesis ([9]; HL-60, 500 μM, 1D-TLC (FIG. 1)): specifically inhibited glycolipid biosynthesis
effect of N-alkyl chain length on inhibition of glycolipid biosynthesis (loss of detectable Glc-Cer) ([9]; HL-60, 0.5 mM, 1D-TLC (FIG. 4)): completely inhibited glycolipid biosynthesis
minimal effective concentration ([9]; Homo sapiens, HL-60, 1D-TLC (FIG. 3), partial inhibition, read-out: concentrations as low as which partial inhibition occurred): 0.5 to 5 µM

Reference: patent US6291657A (priority 1993, dated 2001)
